Measured values as given in patent publication US9403806B1, “Cognition enhancing compounds and compositions, methods of making, and methods of treating” (NeuroSolis, Inc., priority 2010, dated 2016).
Counter-ions that a name gives are not always drawn.

Tests used:
[1] = Metabolites in serum and urine of dosed rats (LC-MS); assay type: in vivo; details: rat serum or urine, 10 mg/kg po
Method: Oxadiazoles disclosed herein as well as other oxadiazoles were investigated to determine the formation of metabolites. Animals were dosed, blood taken, serum prepared, serum proteins precipitated and ultrafiltrates prepared as described in Example 6. In separate experiments, urine was collected from rats for 16-24 hours after dosing, using standard metabolic cages. The urine container and collected urine were maintained at 4° C. Urine was lyophilized, taken back into water. The uftrafiltrate was prepared by adding formic acid to a final concentration of 1% to the urine samples, then filtered through a 0.2 um nylon membrane. The ultrafiltrate was subjected to LC-MS analysis. Instead of measuring the product ions in Q3, manual Q1 scans of the liquid chromatograph were undertaken, seeking parent ions of potential metabolites of the compounds. The criteria for identifying metabolites were as follows: (1) the ion should be present in the sera or urines of dosed rats, but not in sera or urines from non-dosed rats (2) the ion should be identifiable as a metabolic derivative of the dosed compound (e.g. loss of a functional chemical moiety, addition of a hydroxyl group or a glucuronic acid moiety, etc). Metabolites were determined not to be present if no compound meeting the above criteria could be detected in serum or urine.

[2] = Blood and brain concentrations (rats), oral gavage; assay type: in vivo, Long-Evans Hooded rats; details: rat, 10 mg/kg po, 1 hr, relative to MCD-386 = 1.00
Method: Long-Evans Hooded rats (Charles River: male, 250-350 g) were dosed with solutions of test compounds in PBS by oral gavage. At the desired time after dosing, the animals were anesthetized with isoflurane, and then euthanized by cervical dislocation. Blood was obtained by cardiac puncture, transferred to a 1.5 mL microcentrifuge tube containing 15U Heparin, and the plasma recovered after centrifugation. Brains were dissected, weighed, immediately chilled to 4° C., and homogenized using a PowerGen 125 homogenizer in five volumes of ice-cold 2% formic acid. Proteins were precipitated from plasma and brain homogenate with two and five volumes respectively of ice-cold 2% formic acid and clarified by centrifugation. The supernatant was ultra-filtered by centrifugation through a 3K MWCO spin column (Pall Life Sciences), following the manufacturer's instructions. The concentration of compound in the ultra-filtrate was subjected to reverse-phase liquid chromatography using a 150×2.1 mm Agilent C8 reverse-phase column on a Shimadzu Prominence LC, eluting the compounds with a gradient of 2% to 50% of acetonitrile+0.1% formic acid for compound MI-50,382, or an isocratic flow of 2% acetonitrile+0.1% formic acid for the rest of the compounds listed. The concentration of the compound in the column effluent was measured using an Applied Biosystems API-3200 triple quadrupole mass spectrometer equipped with an electrospray sample injection system. The counts of the characteristic parent and product ions of each test compound were converted to concentration units by comparison with a standard calibration curve.

[3] = PAMPA test, Example 34
[4] = target: T1, human muscarinic M1 receptors (Homo sapiens, UniProt P11229); experiment: IP production in A9L cells with human M1 receptors (IPOne TR-FRET), Example 28; assay type: cell-based; details: for huM1/A9L Smax: percentage of maximal stimulation by carbachol; for huM1/A9L ED50 relative to CCh*: potency relative to carbachol at its EC50, semi-quantitative
T1 construct: host or cells: A9L cells
T1 sequence (P11229 1-460): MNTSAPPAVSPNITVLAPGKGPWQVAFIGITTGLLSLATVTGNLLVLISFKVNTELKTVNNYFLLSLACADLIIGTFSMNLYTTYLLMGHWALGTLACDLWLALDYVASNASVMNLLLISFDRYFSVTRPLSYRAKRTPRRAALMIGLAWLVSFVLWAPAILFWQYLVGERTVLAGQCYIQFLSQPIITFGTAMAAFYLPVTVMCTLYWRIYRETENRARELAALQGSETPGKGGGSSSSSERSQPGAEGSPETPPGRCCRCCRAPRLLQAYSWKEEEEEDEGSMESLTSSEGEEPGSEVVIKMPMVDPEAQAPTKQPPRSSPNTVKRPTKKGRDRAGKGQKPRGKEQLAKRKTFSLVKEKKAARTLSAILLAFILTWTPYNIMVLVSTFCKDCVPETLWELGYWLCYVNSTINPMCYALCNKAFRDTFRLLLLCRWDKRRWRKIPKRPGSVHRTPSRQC
Method: (§1) Muscarinic M1 and M3 agonist activity was evaluated by measuring the stimulation of inositol phosphate (IP) production in the presence of lithium chloride from A9L cells transfected with expression plasmids containing human muscarinic M1 and M3 receptors, respectively. The cell lines were a gift from Professor W Messer, and the methods were as described in Tejada F R et al. J. Med. Chem. 2006; 49: 7518-31 except that the assay was scaled down to run in 384 well plates, and IP was measured in the cell lysates using the non-isotopic IPOne TR-FRET assay (CIS-BIO, Inc).
(§2) Cells were grown to 90% confluence in 384 well hi-base plates (Greiner Bio-One), compounds were added at suitable concentrations in growth medium containing 10 mM LiCl, buffered with an extra 10 mM HEPES (pH7.4), and incubated for 60 minutes at 37° C. Cells were lysed and assayed for IP following the manufacturer's instructions.
(§3) The value for a full agonist is 100%, while partial agonists give values below 100%.

[5] = target: T2, human muscarinic M3 receptors (Homo sapiens, UniProt P20309); experiment: IP production in A9L cells with human M3 receptors (IPOne TR-FRET), Example 28; assay type: cell-based; details: for huM3/A9L Smax: percentage of maximal stimulation by carbachol; for huM3/A9L ED50 relative to CCh*: potency relative to carbachol at its EC50, semi-quantitative
T2 construct: host or cells: A9L cells
Method: as §1, §2, §3

[6] = tested on: hippocampal inositol phosphate; experiment: In vivo tissue inositol phosphate signaling pathway activation, hippocampus; parameters: species or system Long Evans Hooded rats; details: rat, Compound 3 1 mg/kg; for effect on increase in hippocampal inositol phosphate caused by Compound 3: antagonist 0.03 mg/kg
Method: (§4) Experimental compounds or drug substances were administered using standard techniques to Long Evans Hooded rats weighing 225 to 350 grams, and which had been pretreated with a subcutaneous injection of lithium chloride at a suitable dose between 3 and 10 mmoles per kg. At suitable times the animals were briefly anesthetized using 5% isoflurane and euthanized by decapitation. The brains and submaxillary salivary glands were rapidly dissected out, and the hippocampuses were dissected from the brains. The dissected tissues were homogenized in a suitable volume of ice-cold phosphate-buffered saline containing 10 mM lithium chloride, pH7.4, using a tissue homogenizer, and used immediately or frozen in aliquots at −80 deg C. for future use. The concentration of inositol-1-phosphate was determined in the homogenates using the IPOne TR-FRET assay (CisBio cat no 621PAPEB), following the manufacturer's instruction

[7] = tested on: anesthetized rats; experiment: Salivation after iontophoretic transdermal co-delivery of agonist and antagonist; assay type: in vivo, Long Evans Hooded rats; details: anesthetized rat, one patch with 1 mg Compound 3 plus 0.01 mg antagonist
Method: Experimental compounds and drug substances were delivered transdermally in rats using iontophoresis as follows. The fur was shaved from the backs of Long Evans Hooded rats weighing 225 to 325 grams, using electric clippers. Experimental compounds and drug substances were formulated at suitable concentrations an aqueous mixture of the following composition:
The polyvinyl alcohol/water was heated to 95 deg C. until it became clear, then the other constituents were added and mixed well. The mixture was introduced into suitable molds containing a disc-shaped cavity 2.2 cm diameter and 2.2 mm deep. Molds may be fabricated using two glass sheets separated by a silicone rubber sheet with suitable sized cavities and filling ports cut-outs. The molds were subject to 3 freeze-thaw cycles at −80 deg C. and 20 deg C. until a firm cryogel was obtained. The gels were separated from the molds and trimmed into a circular shape. The gel was placed in a silicone rubber casing with one face in contact with a circular silver foil anodic electrode (22 mm dia/250 microns thick), and the assembly was placed on the shaved skin of the rat such that the other face was in contact with the skin on one side of the back of the rat. The rubber casing formed a seal over and around the gel/electrode assembly. […] This was placed on the other side of the shaved back of the rat, the edges of the gel discs being about 20 mm apart at their nearest point. A DC voltage was applied across the two patches from a constant-current DC power supply and the voltage adjusted to obtain the desired current, such that the skin of the animal completed the electrical circuit.
The devices were placed on shaved backs of anesthetized rats and salivation was measured.
(§5) The animals were placed slightly head-down on an inclined, heated ramp. Rectal temperature was monitored using a thermocouple and the temperature of the heating pad was adjusted manually to maintain normal body temperature. Saliva was collected from the mouth by absorption onto pre-weighed slips of filter paper. The filter paper was changed periodically and the amount of saliva was measured by weighing the filter paper slips

[8] = tested on: salivary gland inositol phosphate; experiment: In vivo tissue inositol phosphate signaling pathway activation, salivary gland; parameters: species or system Long Evans Hooded rats; details: rat; for block of increase in salivary gland inositol phosphate caused by Compound 3: Compound 3 1 mg/kg; for inhibition of salivary gland inositol phosphate response to MCD-386: MCD-386 50 mg/kg, antagonist 0.3 mg/kg (FIG. 7)
Method: as §4

[9] = tested on: anesthetized normal rats; experiment: In vivo measurement of salivation; parameters: species or system Long Evans Hooded rats; details: rats
Method: as §5, with “Suitable doses of test compounds or drug substances were administered using standard techniques to Long Evans Hooded rats weighing 225 to 350 grams, or CD-1 mice weighing 30 to 50 grams, which had been anesthetized using 2-3.5%% of isoflurane in oxygen. The animals” for “The animals”

[10] = target: T3, human FMO1 Supersomes (Homo sapiens, UniProt Q01740); experiment: Metabolism by flavin monoxygenase 1 (FMO1) Supersomes; assay type: in vitro ADME; details: after 6 hours (FIG. 2)
T3 construct: purchased BD Biosciences 456241
T3 sequence (Q01740 1-532): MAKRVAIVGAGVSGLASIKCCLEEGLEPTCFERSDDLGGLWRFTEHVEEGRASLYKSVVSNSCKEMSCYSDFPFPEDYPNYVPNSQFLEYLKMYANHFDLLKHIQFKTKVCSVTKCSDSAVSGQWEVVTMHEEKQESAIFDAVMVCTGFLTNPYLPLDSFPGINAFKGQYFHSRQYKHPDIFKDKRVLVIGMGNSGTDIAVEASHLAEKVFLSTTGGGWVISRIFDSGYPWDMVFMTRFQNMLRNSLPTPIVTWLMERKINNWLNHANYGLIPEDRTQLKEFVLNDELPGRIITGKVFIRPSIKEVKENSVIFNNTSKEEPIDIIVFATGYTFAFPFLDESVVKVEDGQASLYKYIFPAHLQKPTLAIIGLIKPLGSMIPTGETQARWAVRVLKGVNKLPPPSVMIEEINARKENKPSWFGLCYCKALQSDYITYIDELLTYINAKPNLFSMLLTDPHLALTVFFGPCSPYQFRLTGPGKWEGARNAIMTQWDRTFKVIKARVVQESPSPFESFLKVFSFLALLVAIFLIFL
Method: […] Aliquots were removed every 10 minutes, and 1% formic acid was added to halt the reaction. Samples were centrifuged, filtered through 0.2 micron spinfilter and the amount of each compound in the supernatants was quantitated using LC/MS/MS.

[11] = antagonist 0.03 mg/kg (FIGS. 8C, 8D)

T2 sequence (P20309 whole entry): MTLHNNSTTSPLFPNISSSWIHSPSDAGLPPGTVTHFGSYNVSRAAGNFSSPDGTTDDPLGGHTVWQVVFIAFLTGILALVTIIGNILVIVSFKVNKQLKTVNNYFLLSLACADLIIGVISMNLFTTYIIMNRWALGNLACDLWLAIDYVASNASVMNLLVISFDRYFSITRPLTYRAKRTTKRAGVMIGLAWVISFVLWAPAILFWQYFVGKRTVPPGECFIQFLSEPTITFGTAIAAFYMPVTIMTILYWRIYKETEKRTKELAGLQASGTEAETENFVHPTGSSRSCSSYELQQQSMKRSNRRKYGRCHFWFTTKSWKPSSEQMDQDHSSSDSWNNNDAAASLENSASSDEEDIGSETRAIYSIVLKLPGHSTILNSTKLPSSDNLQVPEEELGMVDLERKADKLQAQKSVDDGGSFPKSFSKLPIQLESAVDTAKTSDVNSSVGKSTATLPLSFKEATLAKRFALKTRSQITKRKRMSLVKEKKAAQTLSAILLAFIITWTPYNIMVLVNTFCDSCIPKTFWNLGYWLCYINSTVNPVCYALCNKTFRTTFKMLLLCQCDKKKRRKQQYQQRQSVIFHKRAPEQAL

## [2H]C([2H])(C)c1noc(C2CN=CNC2)n1 (stereo not shown) [Compound 6c, 3-(1,1-d2-ethyl)-5-(1,4,5,6-tetrahydropyrimidin-5-yl)-1,2,4-oxadiazole hydrochloride]
[1]
  Presence of metabolites (10 mg/kg po): No
[2]
  Brain Cmax (10 mg/kg po) 1 hr MCD-386 = 1.00: 0.82

## Cc1noc(C2(F)CCCNC2)n1 (stereo not shown) [Compound 35, 5-(3-fluoropiperidin-3-yl)-3-methyl-1,2,4-oxadiazole]
[3]; PAMPA
  Papp: 16.3 ×10⁻⁶ cm/s
[4]
  huM1/A9L Smax: 81%
  huM1/A9L ED50 relative to CCh*: − (− potency <0.5-0.1x CCh)
[5]
  huM3/A9L Smax: 70%
  huM3/A9L ED50 relative to CCh*: −− (−− potency <0.1x CCh)

## C[N+]1(C)CCC(OC(=O)C(O)(c2ccccc2)C2CCCC2)C1 (stereo not shown) [glycopyrrolate]
[6]
  effect on increase in hippocampal inositol phosphate caused by Compound 3: without blocking the increase in hippocampal inositol phosphate
[7]
  reduction of salivation caused by transdermal iontophoretic delivery of Compound 3: greatly reduced
[8]; [11]
  block of increase in salivary gland inositol phosphate caused by Compound 3: can block
[8]
  inhibition of salivary gland inositol phosphate response to MCD-386: virtually completed inhibited

## [2H]C([2H])([2H])C([2H])([2H])c1noc(C2CN=CNC2)n1 (stereo not shown) [Compound 2c, 3-(1,1,2,2,2-d5-ethyl)-5-(1,4,5,6-tetrahydropyrimidin-5-yl)-1,2,4-oxadiazole hydrochloride]
[1]
  Presence of metabolites (10 mg/kg po): No
[2]
  Brain Cmax (10 mg/kg po) 1 hr MCD-386 = 1.00: 0.61

## C[N+]1(C)[C@@H]2C[C@@H](OC(=O)[C@H](CO)c3ccccc3)C[C@H]1[C@@H]1O[C@@H]12 [NMS]
[6]; antagonist 0.1 mg/kg
  effect on increase in inositol phosphate in the hippocampus caused by Compound 3: does not inhibit
[7]
  reduction of salivation caused by transdermal iontophoretic delivery of Compound 3: greatly reduced
[8]; antagonist 0.003 mg/kg
  block of increase in salivary gland inositol phosphate caused by Compound 3: some breakthrough activation
[8]; antagonist 0.03 mg/kg to 0.01 mg/kg
  block of increase in salivary gland inositol phosphate caused by Compound 3: nearly as effective as 0.1 mg/kg
[8]; antagonist 0.1 mg/kg (FIGS. 8A, 8B)
  block of increase in salivary gland inositol phosphate caused by Compound 3: completely block
[9]; Compound 3 0.3 mg/kg (FIG. 12)
  decrease in salivation caused by Compound 3: dose-dependent decrease in salivation
[9]; MCD-386 1 mg/kg (FIG. 13)
  reduction in salivation caused by MCD-386: dose-dependent reduction

## CC(C)[N+](C)(CCOC(=O)C1c2ccccc2Oc2ccccc21)C(C)C [propantheline]
[6]
  effect on increase in hippocampal inositol phosphate caused by Compound 3: without blocking the increase in hippocampal inositol phosphate
[7]
  reduction of salivation caused by transdermal iontophoretic delivery of Compound 3: greatly reduced
[8]; [11]
  block of increase in salivary gland inositol phosphate caused by Compound 3: can block
[8]
  inhibition of salivary gland inositol phosphate response to MCD-386: virtually completed inhibited

## 3-methyl-5-(quinuclidin-3-yl)-1,2,4-oxadiazole [Compound 37]
[3]; Table 14
  PAMPA Permeability Coefficient (×10^6): 3.02 ×10^6
[4]; huM1 versus huM3 A9L cells
  selectivity between M1 and M3 receptors: essentially non-selective between M1 and M3 receptors
[4]
  huM1/A9L Smax: 50-100%
  huM1/A9L ED50 relative to CCh*: ++ (++ potency >10x CCh)
[10]
  extent of metabolism in FMO Supersomes (in words): almost completely metabolized
[5]
  huM3/A9L Smax: 50-100%
  huM3/A9L ED50 relative to CCh*: ++ (++ potency >10x CCh)
